{"source": "patent US10112941B2", "about": "“Tricyclic compounds as anticancer agents” (BRISTOL-MYERS SQUIBB COMPANY, priority 2013, dated 2018)"}
{"target": "BRD4 (Homo sapiens, UniProt O60885)", "assay": "Time Resolved Fluorescence Resonance Energy Transfer (TR-FRET) binding assay, BRD4", "details": "one of the FRET assays described; read-out: FRET BRD4 IC50", "units": {"IC50": "nM"}}
{"smiles": "Cc1nnn(C)c1-c1cnc2c3ccc(C(C)(O)C4CC4)c(F)c3n([C@H](c3ccccc3F)C3CCOCC3)c2c1", "note": "(single isomer, unassigned) [Example 436]", "IC50": "< 5"}
{"smiles": "[2H]C([2H])([2H])c1nnn(C)c1-c1cnc2c3ccc(C(C)(C)O)cc3n(C(c3ccccc3)C3CCC(F)(F)CC3)c2c1", "note": "(centres unmarked) [Example 203, 2-{5-[(4,4-Difluorocyclohexyl)(phenyl)methyl]-3-[4-(^2H3)methyl-1-methyl-1H-1,2,3-triazol-5-yl]-5H-pyrido[3,2-b]indol-7-yl}propan-2-ol]", "IC50": "< 5"}
{"smiles": "Cc1nnn(C)c1-c1cnc2c3ccc(C(C)(O)CO)cc3n([C@H](c3ccccc3)C3CCOCC3)c2c1", "note": "(stereo partly drawn) [Example 424, 2-[3-(Dimethyl-1H-1,2,3-triazol-5-yl)-5-[(S)-oxan-4-yl(phenyl)methyl]-5H-pyrido[3,2-b]indol-7-yl]propane-1,2-diol]", "IC50": "< 5"}
{"smiles": "Cc1nnn(C)c1-c1cnc2c3cc(C(=O)N4CC(C)(O)C4)ccc3n([C@H](c3ccccc3)C3CCOCC3)c2c1", "note": "[Example 427, 1-[3-(Dimethyl-1H-1,2,3-triazol-5-yl)-5-[(S)-oxan-4-yl(phenyl)methyl]-5H-pyrido[3,2-b]indole-8-carbonyl]-3-methylazetidin-3-ol]", "IC50": "< 5"}
{"smiles": "Cc1nnn(C)c1-c1cnc2c3ccc([C@@](C)(O)C4CC4)c(F)c3n([C@H](c3ccccc3)C3CCOCC3)c2c1", "note": "[Example 431, (1S)-1-Cyclopropyl-1-[3-(dimethyl-1H-1,2,3-triazol-5-yl)-6-fluoro-5-[(S)-oxan-4-yl(phenyl)methyl]-5H-pyrido[3,2-b]indol-7-yl]ethan-1-ol]", "IC50": "< 5"}
{"smiles": "Cc1nnn(C)c1-c1cnc2c3ccc([C@](C)(O)C4CC4)c(F)c3n([C@H](c3ccccc3)C3CCOCC3)c2c1", "note": "[Example 434, (1R)-1-cyclopropyl-1-{6-fluoro-3-[4-(^2H3)methyl-1-methyl-1H-1,2,3-triazol-5-yl]-5-[(S)-oxan-4-yl(phenyl)methyl]-5H-pyrido[3,2-b]indol-7-yl}ethan-1-ol]", "IC50": "< 5"}
{"smiles": "[2H]C([2H])([2H])c1nnn(C)c1-c1cnc2c3ccc(C(C)(O)C4CC4)c(F)c3n([C@H](c3ccccc3F)C3CCOCC3)c2c1", "note": "(stereo partly drawn) [Example 437, 1-Cyclopropyl-1-{6-fluoro-5-[(S)-(2-fluorophenyl)(oxan-4-yl)methyl]-3-[4-(^2H3)methyl-1-methyl-1H-1,2,3-triazol-5-yl]-5H-pyrido[3,2-b]indol-7-yl}ethan-1-ol]", "IC50": "< 5"}
{"smiles": "COc1nnn(C)c1-c1cnc2c3ccc(C(C)(O)C4CC4)c(F)c3n([C@H](c3ccccc3)C3CCOCC3)c2c1", "note": "(stereo partly drawn) [Example 439, 1-Cyclopropyl-1-[6-fluoro-3-(4-methoxy-1-methyl-1H-1,2,3-triazol-5-yl)-5-[(S)-oxan-4-yl(phenyl)methyl]-5H-pyrido[3,2-b]indol-7-yl]ethan-1-ol]", "IC50": "< 5"}
{"smiles": "[2H]C([2H])([2H])c1nnn(C)c1-c1cnc2c3cc(F)c(C(C)(O)C4CC4)cc3n([C@H](c3ccccc3)C3CCOCC3)c2c1", "note": "(stereo partly drawn) [Example 445, 1-Cyclopropyl-1-{8-fluoro-3-[4-(^2H3)methyl-1-methyl-1H-1,2,3-triazol-5-yl]-5-[(S)-oxan-4-yl(phenyl)methyl]-5H-pyrido[3,2-b]indol-7-yl}ethan-1-ol]", "IC50": "< 5"}
{"smiles": "[2H]C([2H])([2H])c1nnn(C)c1-c1cnc2c3cc(F)c(C(C)(O)C4CC4)cc3n([C@H](c3ccccc3)C3CCOCC3)c2c1", "note": "(stereo partly drawn) [Example 446, 1-Cyclopropyl-1-{8-fluoro-3-[4-(^2H3)methyl-1-methyl-1H-1,2,3-triazol-5-yl]-5-[(S)-oxan-4-yl(phenyl)methyl]-5H-pyrido[3,2-b]indol-7-yl}ethan-1-ol]", "IC50": "< 5"}
{"smiles": "[2H]C([2H])([2H])c1nnn(C)c1-c1cnc2c3cc(F)c(C(C)(C)O)c(F)c3n([C@H](c3ccccc3)C3CCOCC3)c2c1", "note": "[Example 452, 2-{6,8-Difluoro-3-[4-(^2H3)methyl-1-methyl-1H-1,2,3-triazol-5-yl]-5-[(S)-oxan-4-yl(phenyl)methyl]-5H-pyrido[3,2-b]indol-7-yl}propan-2-ol]", "IC50": "< 5"}
{"smiles": "Cn1nncc1-c1cnc2c3ccc(S(C)(=O)=O)cc3n([C@H](c3ccccc3)C3CCOCC3)c2c1", "note": "[Example 453, 5-{7-Methanesulfonyl-5-[(S)-oxan-4-yl(phenyl)methyl]-5H-pyrido[3,2-b]indol-3-yl}-1-methyl-1H-1,2,3-triazole]", "IC50": "< 5"}
{"smiles": "Cc1ncn(C)c1-c1cnc2c3ccc(S(C)(=O)=O)cc3n([C@H](c3ccccc3)C3CCOCC3)c2c1", "note": "[Example 454, 5-{7-Methanesulfonyl-5-[(S)-oxan-4-yl(phenyl)methyl]-5H-pyrido[3,2-b]indol-3-yl}-1,4-dimethyl-1H-imidazole]", "IC50": "< 25"}
{"smiles": "Cc1n[nH]cc1-c1cnc2c3ccc(S(C)(=O)=O)cc3n([C@H](c3ccccc3)C3CCOCC3)c2c1", "note": "[Example 455, 4-{7-Methanesulfonyl-5-[(S)-oxan-4-yl(phenyl)methyl]-5H-pyrido[3,2-b]indol-3-yl}-3-methyl-1H-pyrazole]", "IC50": "< 25"}
{"smiles": "Cc1nnn(C)c1-c1cnc2c3ccc(C(N)=O)c(F)c3n([C@H](c3ccccc3)C3CCOCC3)c2c1", "note": "[Example 460, 3-(Dimethyl-1H-1,2,3-triazol-5-yl)-6-fluoro-5-[(S)-oxan-4-yl(phenyl)methyl]-5H-pyrido[3,2-b]indole-7-carboxamide]", "IC50": "< 5"}
{"smiles": "Cc1nnn(C)c1-c1cnc2c3ccc(C(C)(C)N)c(F)c3n([C@H](c3ccccc3)C3CCOCC3)c2c1", "note": "[Example 461, 2-[3-(Dimethyl-1H-1,2,3-triazol-5-yl)-6-fluoro-5-[(S)-oxan-4-yl(phenyl)methyl]-5H-pyrido[3,2-b]indol-7-yl]propan-2-amine]", "IC50": "< 5"}
{"smiles": "CC(=O)NC(C)(C)c1ccc2c3ncc(-c4c(C)nnn4C)cc3n([C@H](c3ccccc3)C3CCOCC3)c2c1F", "note": "[Example 462, N-{2-[3-(Dimethyl-1H-1,2,3-triazol-5-yl)-6-fluoro-5-[(S)-oxan-4-yl(phenyl)methyl]-5H-pyrido[3,2-b]indol-7-yl]propan-2-yl}acetamide]", "IC50": "< 5"}
{"smiles": "Cc1nnn(C)c1-c1cnc2c3ccc(C(C)(C)NS(C)(=O)=O)c(F)c3n([C@H](c3ccccc3)C3CCOCC3)c2c1", "note": "[Example 463, N-{2-[3-(Dimethyl-1H-1,2,3-triazol-5-yl)-6-fluoro-5-[(S)-oxan-4-yl(phenyl)methyl]-5H-pyrido[3,2-b]indol-7-yl]propan-2-yl}methanesulfonamide]", "IC50": "< 5"}
{"smiles": "COC(=O)NC(C)(C)c1ccc2c3ncc(-c4c(C)nnn4C)cc3n([C@H](c3ccccc3)C3CCOCC3)c2c1F", "note": "[Example 464, Methyl N-{2-[3-(dimethyl-1H-1,2,3-triazol-5-yl)-6-fluoro-5-[(S)-oxan-4-yl(phenyl)methyl]-5H-pyrido[3,2-b]indol-7-yl]propan-2-yl}carbamate]", "IC50": "< 5"}
{"tested_on": "JJN3R multiple myeloma cell line", "assay": "Human tumor xenograft model in mice, JJN3R", "type": "in vivo", "details": "1 mg/kg, QD × 7", "description": "(§1) All rodents were obtained from Jackson Laboratory. (Bar Harbor, Me.), and maintained in an ammonia-free environment in a defined and pathogen-free colony. All mice were quarantined approximately 1 week prior to their use for tumor propagation and drug efficacy testing. Mice were fed food and water ad libitum. The animal care program of Bristol-Myers Squibb Pharmaceutical Research Institute is fully accredited by the American Association for Accreditation of Laboratory Animal Care (AAALAC). All experiments were performed in accordance with Bristol-Myers Squibb (BMS) animal test methods and guidelines.\n(§2) Tumor xenografts were grown and maintained subcutaneously (SC) in NSG (NOD scid IL2 receptor gamma chain knockout) mice (Jackson Lab). Tumors were propagated as subcutaneous transplants using tumor fragments obtained from donor mice.\n(§3) The required numbers of animals needed to detect a meaningful response were pooled at the start of the experiment and each was given bilateral subcutaneous implants of two tumor fragments (˜20 mg) with a 13-gauge trocar. Tumors were allowed to grow to the pre-determined size window (tumors outside the range were excluded) and animals were evenly distributed to various treatment and control groups. There were typically 6-8 mice per treatment and control groups, consisting of 10-12 tumors. Treatment of each animal was based on individual body weight. Treated animals were checked daily for treatment related toxicity/mortality. Each group of animals was weighed before the initiation of treatment (Wt1) and then again following the last treatment dose (Wt2). The difference in body weight (Wt2−Wt1) provides a measure of treatment-related toxicity.\n(§4) Tumor response was determined by measurement of tumors with a caliper twice a week, until the tumors reached a predetermined “target” size of 0.5 gm or 1 gm depending on the tumor type. Tumor weights (mg) were estimated from the formula: Tumor weight=(length×width^2)÷2\n(§5) Tumor response criteria are expressed in terms of tumor growth inhibition (% TGI). Tumor growth delay is defined as the difference in time (days) required for the treated tumors (T) to reach a predetermined target size compared to those of the control group (C). For this purpose, the tumor weight of a group is expressed as medium tumor weight (MTW).\n(§6) [formula] where, • Ct=Median control tumor size at end of treatment • C0=Median control tumor size at treatment initiation • Tt=Median tumor size of treated group at end of treatment • T0=Median tumor size of treated group at treatment initiation\n(§7) Tumor response was also expressed in terms of tumor growth delay and expressed as log cell kill (LCK value), defined as the difference in time (days) required for the treated tumors (T) to reach a predetermined target size compared to those of the control group (C).\n(§8) Whenever possible, antitumor activity was determined at a range of dose levels up to the maximum tolerated dose (MTD) which is defined as the dose level immediately […] which excessive toxicity (i.e. more than one death) occurred. When death occurred, the day of death was recorded. Treated mice dying prior to having their tumors reach target size were considered to have died from drug toxicity. No control mice died bearing tumors less than target size. Treatment groups with more than one death caused by drug toxicity were considered to have had excessively toxic treatments and their data were not included in the evaluation of a compound's antitumor efficacy.\n(§9) For administration of BET inhibitors to rodents, compounds were dissolved in […]/10% TPGS/10% Ethanol. BET inhibitors were typically administered orally on a schedule of QD×7 or QD×10 (5 day-on-2 day-off), although other schedules had also been evaluated and shown to be efficacious", "units": {"% TGI": "%"}}
{"smiles": "Cc1nnn(C)c1-c1cnc2c3ccc(C(C)(O)C4CC4)c(F)c3n([C@H](c3ccccc3F)C3CCOCC3)c2c1", "note": "(single isomer, unassigned) [Example 436]", "LCK": 0.6}
{"smiles": "[2H]C([2H])([2H])c1nnn(C)c1-c1cnc2c3ccc(C(C)(C)O)cc3n(C(c3ccccc3)C3CCC(F)(F)CC3)c2c1", "note": "(centres unmarked) [Example 203, 2-{5-[(4,4-Difluorocyclohexyl)(phenyl)methyl]-3-[4-(^2H3)methyl-1-methyl-1H-1,2,3-triazol-5-yl]-5H-pyrido[3,2-b]indol-7-yl}propan-2-ol]", "% TGI": 93, "LCK": 0.7}
{"smiles": "[2H]C([2H])([2H])c1nnn(C)c1-c1cnc2c3ccc([C@@](C)(O)C4CC4)c(F)c3n([C@H](c3ccccc3)C3CCOCC3)c2c1", "note": "[Example 433, (1S)-1-cyclopropyl-1-{6-fluoro-3-[4-(^2H3)methyl-1-methyl-1H-1,2,3-triazol-5-yl]-5-[(S)-oxan-4-yl(phenyl)methyl]-5H-pyrido[3,2-b]indol-7-yl}ethan-1-ol]", "% TGI": 54, "LCK": 0.5}
{"smiles": "[2H]C([2H])([2H])c1nnn(C)c1-c1cnc2c3ccc([C@](C)(O)C4CC4)c(F)c3n([C@H](c3ccccc3)C3CCOCC3)c2c1", "note": "[Example 434, (1R)-1-cyclopropyl-1-{6-fluoro-3-[4-(^2H3)methyl-1-methyl-1H-1,2,3-triazol-5-yl]-5-[(S)-oxan-4-yl(phenyl)methyl]-5H-pyrido[3,2-b]indol-7-yl}ethan-1-ol]", "% TGI": 82, "LCK": 0.5}
{"tested_on": "JJN3R multiple myeloma cell line", "assay": "Human tumor xenograft model in mice, JJN3R", "type": "in vivo", "details": "4 mg/kg, QD × 7", "description": "as §1, §2, §3, §4, §5, §6, §7, §8, §9", "units": {"% TGI": "%"}}
{"smiles": "Cc1nnn(C)c1-c1cnc2c3ccc(C(C)(O)C4CC4)c(F)c3n([C@H](c3ccccc3F)C3CCOCC3)c2c1", "note": "(single isomer, unassigned) [Example 436]", "LCK": 0.9}
{"smiles": "[2H]C([2H])([2H])c1nnn(C)c1-c1cnc2c3ccc(C(C)(C)O)cc3n(C(c3ccccc3)C3CCC(F)(F)CC3)c2c1", "note": "(centres unmarked) [Example 203, 2-{5-[(4,4-Difluorocyclohexyl)(phenyl)methyl]-3-[4-(^2H3)methyl-1-methyl-1H-1,2,3-triazol-5-yl]-5H-pyrido[3,2-b]indol-7-yl}propan-2-ol]", "% TGI": 105, "LCK": ">1.4"}
